Assay results as given in patent publication US8410117B2, “Imidazopyrimidine derivatives” (Hoffmann-La Roche Inc., priority 2010, dated 2013).

Molecular target: T1, human PDE10A (Homo sapiens, UniProt Q9Y233)
T1 construct: The human PDE10A full length assay; purchased Enzo Life Science, Lausen, Switzerland SE-534
Assay: human PDE10A full length Scintillation Proximity Assay (SPA)
Assay type: biochemical
Details: 50 nM cGMP and 50 nM [3H]-cGMP, 20 minutes at room temperature; read-out: PDE10A inhibition IC50
How it was run: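 Full-length enzyme at 3.75 ng/well in 20 mM HEPES pH 7.5, 10 mM MgCl2, 0.05 mg/ml BSA, with 50 nM cGMP plus 50 nM [3H]-cGMP substrate, 20 min at room temperature. Stopped with YSi-SPA beads in zinc sulphate and counted by scintillation. IC50 from inhibitor concentration series; no-enzyme wells define background.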

T1 sequence (Q9Y233 1-779 isoform Q9Y233-1): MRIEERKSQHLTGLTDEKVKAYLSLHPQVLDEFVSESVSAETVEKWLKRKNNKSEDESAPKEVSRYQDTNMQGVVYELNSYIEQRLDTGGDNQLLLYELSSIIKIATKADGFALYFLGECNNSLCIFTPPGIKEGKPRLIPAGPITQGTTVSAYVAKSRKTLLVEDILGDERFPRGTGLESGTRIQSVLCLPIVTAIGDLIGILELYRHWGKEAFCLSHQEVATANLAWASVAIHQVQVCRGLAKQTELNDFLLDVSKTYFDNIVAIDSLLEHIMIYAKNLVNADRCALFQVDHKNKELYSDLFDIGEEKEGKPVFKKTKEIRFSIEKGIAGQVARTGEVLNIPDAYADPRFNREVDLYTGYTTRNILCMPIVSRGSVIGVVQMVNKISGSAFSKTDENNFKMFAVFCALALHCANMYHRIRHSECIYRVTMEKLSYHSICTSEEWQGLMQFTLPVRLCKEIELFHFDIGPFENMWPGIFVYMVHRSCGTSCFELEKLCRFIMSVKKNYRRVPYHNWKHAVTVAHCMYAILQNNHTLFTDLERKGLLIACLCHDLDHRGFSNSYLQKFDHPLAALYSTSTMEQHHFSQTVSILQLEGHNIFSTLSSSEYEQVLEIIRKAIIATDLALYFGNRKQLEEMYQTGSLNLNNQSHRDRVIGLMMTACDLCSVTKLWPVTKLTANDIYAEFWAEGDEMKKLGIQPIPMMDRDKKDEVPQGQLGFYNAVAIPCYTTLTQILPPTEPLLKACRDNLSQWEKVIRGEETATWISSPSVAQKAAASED

Structure (SMILES)	IC50
CC(NC(=O)c1cnn(C)c1C(=O)Nc1ccn2cc(-c3ccccc3)nc2n1)c1cccnc1 (centres unmarked) [Example 139, 1-methyl-N5-(2-phenylimidazo[1,2-a]pyrimidin-7-yl)-N4-(1-(pyridin-3-yl)ethyl)-1H-pyrazole-4,5-dicarboxamide]	148 nM
Cc1nn(C)c(CNC(=O)c2cnn(C)c2C(=O)Nc2ccn3cc(-c4ccccc4)nc3n2)c1[N+](=O)[O-] [Example 140, N4-((1,3-dimethyl-4-nitro-1H-pyrazol-5-yl)methyl)-1-methyl-N5-(2-phenylimidazo[1,2-a]pyrimidin-7-yl)-1H-pyrazole-4,5-dicarboxamide]	151 nM
O=C(Nc1ccn2cc(-c3ccccc3)nc2n1)c1nn[nH]c1C(=O)NC1COC1 [Example 141, N5-(oxetan-3-yl)-N4-(2-phenylimidazo[1,2-a]pyrimidin-7-yl)-1H-1,2,3-triazole-4,5-dicarboxamide]	151 nM
Cn1ncc(C(=O)NCc2ccc(C#N)nc2)c1C(=O)Nc1ccn2cc(-c3ccccc3)nc2n1 [Example 142, N4-((6-cyanopyridin-3-yl)methyl)-1-methyl-N5-(2-phenylimidazo[1,2-a]pyrimidin-7-yl)-1H-pyrazole-4,5-dicarboxamide]	152 nM
Cc1cc(CNC(=O)c2cnn(C)c2C(=O)Nc2ccn3cc(-c4ccccc4)nc3n2)no1 [Example 143, 1-methyl-N-4-((5-methylisoxazol-3-yl)methyl)-N5-(2-phenylimidazo[1,2-a]pyrimidin-7-yl)-1H-pyrazole-4,5-dicarboxamide]	162 nM
Cn1ncc(C(=O)NCc2ccc(C(F)(F)F)nc2)c1C(=O)Nc1ccn2cc(-c3ccccc3)nc2n1 [Example 144, 1-methyl-N5-(2-phenylimidazo[1,2-a]pyrimidin-7-yl)-N-4-((6-(trifluoromethyl)pyridin-3-yl)methyl)-1H-pyrazole-4,5-dicarboxamide]	198 nM
Cn1ncc(C(=O)NC2(C#N)CC2)c1C(=O)Nc1ccn2cc(-c3ccccc3)nc2n1 [Example 145, N4-(1-cyanocyclopropyl)-1-methyl-N5-(2-phenylimidazo[1,2-a]pyrimidin-7-yl)-1H-pyrazole-4,5-dicarboxamide]	210 nM
Cn1ncc(C(=O)NCc2ccon2)c1C(=O)Nc1ccn2cc(-c3ccccc3)nc2n1 [Example 146, N4-(isoxazol-3-ylmethyl)-1-methyl-N5-(2-phenylimidazo[1,2-a]pyrimidin-7-yl)-1H-pyrazole-4,5-dicarboxamide]	212 nM
Cn1ncc(C(=O)NCc2nnn[nH]2)c1C(=O)Nc1ccn2cc(-c3ccccc3)nc2n1 [Example 147, N4-((1H-tetrazol-5-yl)methyl)-1-methyl-N5-(2-phenylimidazo[1,2-a]pyrimidin-7-yl)-1H-pyrazole-4,5-dicarboxamide]	235 nM
Cn1ncc(C(=O)NCc2ccncc2)c1C(=O)Nc1ccn2cc(-c3ccccc3)nc2n1 [Example 148, 1-methyl-N5-(2-phenylimidazo[1,2-a]pyrimidin-7-yl)-N4-(pyridin-4-ylmethyl)-1H-pyrazole-4,5-dicarboxamide]	244 nM
Cn1ncc(C(=O)NCc2cn3ccccc3n2)c1C(=O)Nc1ccn2cc(-c3ccccc3)nc2n1 [Example 149, N4-(imidazo[1,2-a]pyridin-2-ylmethyl)-1-methyl-N5-(2-phenylimidazo[1,2-a]pyrimidin-7-yl)-1H-pyrazole-4,5-dicarboxamide]	260 nM
COCCNC(=O)c1[nH]nnc1C(=O)Nc1ccn2cc(-c3ccccc3)nc2n1 [Example 150, N5-(2-methoxyethyl)-N4-(2-phenylimidazo[1,2-a]pyrimidin-7-yl)-1H-1,2,3-triazole-4,5-dicarboxamide]	263 nM
Cn1ncc(C(=O)NCc2nc(C#N)cs2)c1C(=O)Nc1ccn2cc(-c3ccccc3)nc2n1 [Example 151, N4-((4-cyanothiazol-2-yl)methyl)-1-methyl-N5-(2-phenylimidazo[1,2-a]pyrimidin-7-yl)-1H-pyrazole-4,5-dicarboxamide]	288 nM
Cn1ncc(C(=O)NCc2cc(C3CC3)[nH]n2)c1C(=O)Nc1ccn2cc(-c3ccccc3)nc2n1 [Example 152, N4-((5-cyclopropyl-1H-pyrazol-3-yl)methyl)-1-methyl-N5-(2-phenylimidazo[1,2-a]pyrimidin-7-yl)-1H-pyrazole-4,5-dicarboxamide]	302 nM
Cn1ncc(C(=O)NCc2cn3ccsc3n2)c1C(=O)Nc1ccn2cc(-c3ccccc3)nc2n1 [Example 153, N4-(imidazo[2,1-b]thiazol-6-ylmethyl)-1-methyl-N5-(2-phenylimidazo[1,2-a]pyrimidin-7-yl)-1H-pyrazole-4,5-dicarboxamide]	305 nM
Cn1ncc(C(=O)NCc2ccc(Cl)nc2)c1C(=O)Nc1ccn2cc(-c3ccccc3)nc2n1 [Example 154, N4-((6-chloropyridin-3-yl)methyl)-1-methyl-N5-(2-phenylimidazo[1,2-a]pyrimidin-7-yl)-1H-pyrazole-4,5-dicarboxamide]	315 nM
Cc1ccc(CNC(=O)c2cnn(C)c2C(=O)Nc2ccn3cc(-c4ccccc4)nc3n2)nc1 [Example 155, 1-methyl-N4-((5-methylpyridin-2-yl)methyl)-N5-(2-phenylimidazo[1,2-a]pyrimidin-7-yl)-1H-pyrazole-4,5-dicarboxamide]	346 nM
CCCNC(=O)c1[nH]nnc1C(=O)Nc1ccn2cc(-c3ccccc3)nc2n1 [Example 156, N4-(2-phenylimidazo[1,2-a]pyrimidin-7-yl)-N5-propyl-1H-1,2,3-triazole-4,5-dicarboxamide]	359 nM
Cn1ccc(CNC(=O)c2cnn(C)c2C(=O)Nc2ccn3cc(-c4ccccc4)nc3n2)n1 [Example 157, 1-methyl-N-4-((1-methyl-1H-pyrazol-3-yl)methyl)-N5-(2-phenylimidazo[1,2-a]pyrimidin-7-yl)-1H-pyrazole-4,5-dicarboxamide]	389 nM

Now from value to compound:

IC50	Structure (SMILES)
427 nM	Cn1cc(Cl)c(CNC(=O)c2cnn(C)c2C(=O)Nc2ccn3cc(-c4ccccc4)nc3n2)n1 [Example 158, N4-((4-chloro-1-methyl-1H-pyrazol-3-yl)methyl)-1-methyl-N5-(2-phenylimidazo[1,2-a]pyrimidin-7-yl)-1H-pyrazole-4,5-dicarboxamide]
451 nM	O=C(Nc1ccn2cc(-c3ccccc3)nc2n1)c1nn[nH]c1C(=O)NC1CC1 [Example 159, N5-cyclopropyl-N4-(2-phenylimidazo[1,2-a]pyrimidin-7-yl)-1H-1,2,3-triazole-4,5-dicarboxamide]
459 nM	CCc1cc(CNC(=O)c2cnn(C)c2C(=O)Nc2ccn3cc(-c4ccccc4)nc3n2)on1 [Example 160, N4-((3-ethylisoxazol-5-yl)methyl)-1-methyl-N5-(2-phenylimidazo[1,2-a]pyrimidin-7-yl)-1H-pyrazole-4,5-dicarboxamide]
547 nM	COc1ncccc1CNC(=O)c1cnn(C)c1C(=O)Nc1ccn2cc(-c3ccccc3)nc2n1 [Example 161, N4-((2-methoxypyridin-3-yl)methyl)-1-methyl-N5-(2-phenylimidazo[1,2-a]pyrimidin-7-yl)-1H-pyrazole-4,5-dicarboxamide]
624 nM	Cn1ncc(C(=O)NCc2ccccc2)c1C(=O)Nc1ccn2cc(-c3ccccc3)nc2n1 [Example 162, N4-benzyl-1-methyl-N5-(2-phenylimidazo[1,2-a]pyrimidin-7-yl)-1H-pyrazole-4,5-dicarboxamide]
636 nM	Cc1nc(CNC(=O)c2cnn(C)c2C(=O)Nc2ccn3cc(-c4ccccc4)nc3n2)cs1 [Example 163, 1-methyl-N4-((2-methylthiazol-4-yl)methyl)-N5-(2-phenylimidazo[1,2-a]pyrimidin-7-yl)-1H-pyrazole-4,5-dicarboxamide]
725 nM	CCCn1ccc(CNC(=O)c2cnn(C)c2C(=O)Nc2ccn3cc(-c4ccccc4)nc3n2)n1 [Example 164, 1-methyl-N5-(2-phenylimidazo[1,2-a]pyrimidin-7-yl)-N4-((1-propyl-1H-pyrazol-3-yl)methyl)-1H-pyrazole-4,5-dicarboxamide]
776 nM	Cc1oc(C2CC2)nc1CNC(=O)c1cnn(C)c1C(=O)Nc1ccn2cc(-c3ccccc3)nc2n1 [Example 165, N4-((2-cyclopropyl-5-methyloxazol-4-yl)methyl)-1-methyl-N5-(2-phenylimidazo[1,2-a]pyrimidin-7-yl)-1H-pyrazole-4,5-dicarboxamide]
812 nM	Cn1ncc(C(=O)NCc2noc(C3CC3)n2)c1C(=O)Nc1ccn2cc(-c3ccccc3)nc2n1 [Example 166, N4-((5-cyclopropyl-1,2,4-oxadiazol-3-yl)methyl)-1-methyl-N5-(2-phenylimidazo[1,2-a]pyrimidin-7-yl)-1H-pyrazole-4,5-dicarboxamide]
825 nM	Cn1ncc(C(=O)NCc2nc(C3CC3)no2)c1C(=O)Nc1ccn2cc(-c3ccccc3)nc2n1 [Example 167, N4-((3-cyclopropyl-1,2,4-oxadiazol-5-yl)methyl)-1-methyl-N5-(2-phenylimidazo[1,2-a]pyrimidin-7-yl)-1H-pyrazole-4,5-dicarboxamide]
865 nM	Cc1nc(CNC(=O)c2cnn(C)c2C(=O)Nc2ccn3cc(-c4ccccc4)nc3n2)no1 [Example 168, 1-methyl-N-4-((5-methyl-1,2,4-oxadiazol-3-yl)methyl)-N5-(2-phenylimidazo[1,2-a]pyrimidin-7-yl)-1H-pyrazole-4,5-dicarboxamide]
963 nM	Cn1cc2c(n1)CN(C(=O)c1cnn(C)c1C(=O)Nc1ccn3cc(-c4ccccc4)nc3n1)C2 [Example 169, 1-methyl-4-(2-methyl-2,4,5,6-tetrahydropyrrolo[3,4-c]pyrazole-5-carbonyl)-N-(2-phenylimidazo[1,2-a]pyrimidin-7-yl)-1H-pyrazole-5-carboxamide]
969 nM	Cn1ncc(C(=O)NCc2nc3ccccc3o2)c1C(=O)Nc1ccn2cc(-c3ccccc3)nc2n1 [Example 170, N4-(benzo[d]oxazol-2-ylmethyl)-1-methyl-N5-(2-phenylimidazo[1,2-a]pyrimidin-7-yl)-1H-pyrazole-4,5-dicarboxamide]
